Earlier results as cited in patent publication US20120209125A1, “Singlet Oxygen Production and Dosimetry for Photodynamic Therapy” (PHYSICAL SCIENCES, INC., priority 2011, published 2012).

Conditions: isoflurane gas anesthesia; 'minimally metabolized'

fraction metabolized by the liver: < 0.17%
SMILES: FC(F)OC(Cl)C(F)(F)F (stereo not shown) [isoflurane]
